We go through 25 compounds from patent publication US6201025A, “N-aralkylaminotetralins as ligands for the neuropeptide Y Y5 receptor” (Ortho-McNeil Pharmaceutical, Inc., priority 1999, dated 2001).

Where a name gives a salt, the structure may show the parent alone. Read-outs that look alike come from different tables or passages of the source.

The experiment concerns the target T1, human neuropeptide Y5 receptor (Homo sapiens, UniProt Q15761).
T1 construct: expressed in transfected cells; cell membranes
T1 sequence (Q15761 1-445): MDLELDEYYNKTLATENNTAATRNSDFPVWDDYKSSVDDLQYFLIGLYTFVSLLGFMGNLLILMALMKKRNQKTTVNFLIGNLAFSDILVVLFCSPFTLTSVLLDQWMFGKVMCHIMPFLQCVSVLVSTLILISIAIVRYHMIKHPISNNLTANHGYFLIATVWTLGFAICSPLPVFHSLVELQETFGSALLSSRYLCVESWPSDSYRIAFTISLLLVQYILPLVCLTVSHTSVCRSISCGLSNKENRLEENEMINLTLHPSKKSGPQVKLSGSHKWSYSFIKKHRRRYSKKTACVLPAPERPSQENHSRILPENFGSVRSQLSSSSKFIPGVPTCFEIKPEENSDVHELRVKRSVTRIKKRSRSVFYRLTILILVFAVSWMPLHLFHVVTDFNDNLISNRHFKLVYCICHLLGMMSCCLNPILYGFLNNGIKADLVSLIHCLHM
As to the kind of experiment: NPY5 HTS Centrifugation Assay: competition of 125I-PYY binding to membranes of NPY5-transfected HEK293 cells. The note with it: for inhibition at 3 µM: read-out: % Inhibition of 125I-PYY Binding @ 3 uM; for inhibition at 30 µM: read-out: % Inhibition of 125I-PYY Binding @ 30 uM. The protocol: The compounds described in this invention were evaluated for binding to the human neuropeptide Y5 receptor.
Stably transfected cells served as the source for the membranes for the NPY5 receptor binding assay.
NPY5-transfected HEK293 cells were grown to confluence in 150 cm^2 culture dishes. […] Cells were then incubated in phosphate-buffered saline without Calcium and without Magnesium, supplemented with 2 mM EDTA. Cells were incubated for 10 minutes at room temperature and the cells were collected by repetitive pipeting. Cells were formed into pellets and then frozen at -80° C. until needed. Frozen pellets were homogenized with a polytron at full speed for 12 seconds in a homogenization buffer (20 mM Tris HCl, 5 mM EDTA, pH 7.4). Homogenates were centrifuged for 5 minutes at 4° C. at 200 g. Supernatants were transferred to corex tubes and centrifuged for 25 minutes at 28,000 g. Pellets were re-suspended in Binding (20 mM HEPES, 10 mM NaCl, 0.22 mM KH2 PO4, 1.3 mM CaCl2, 0.8 mM MgSO4, pH 7.4). Membranes were kept on ice until use.
Compounds to be tested were prepared as 10x stocks in binding buffer and added first to assay tubes (RIA vials, Sarstedt). […] To each tube is added 100 μL of membranes and the mixture is agitated by pipeting 2 times. Samples are incubated for 1 hr at room temperature. Aluminum cast plates (Sarstedt) containing the vials are then centrifuged 10 minutes at 3200 rpm in a Sorvall RT6000. Supernatant is then aspirated. To each vial 400 μL PBS is added and this is then aspirated again. Vials are then put in carrier polypropylene 12×75 tube and counted in gamma counter (Packard). Non-specific binding is determined in the presence of 300 nM NPY.

Setting [1] is: 3 uM, 80 pM 125I-PYY, human NPY Y5 receptor, 1 hr room temperature.
Setting [2] is: 30 uM, 80 pM 125I-PYY, human NPY Y5 receptor, 1 hr room temperature.

As for `COc1ccc2c(c1)CC[C@@H](NCCc1ccccc1)[C@H]2Cc1ccccc1` (relative stereo) [Compound 29], the inhibition (in general, the change of the read-out against control, counted positive when it falls) at 3 µM under setting [1] stood at 33%. Under setting [2], the inhibition at 30 µM worked out at 95%. The matching figures for `COc1ccc(CCN[C@@H]2CCc3ccccc3[C@@H]2Cc2ccccc2)cc1OC` (relative stereo) [Compound 35]: 47% and 99%. The matching figures for `COc1ccccc1C(=O)N[C@@H]1CCc2ccccc2[C@@H]1Cc1ccccc1` (relative stereo) [Compound 17, rac-cis-1-(Phenylmethyl)-N-(2-methoxyphenyl-2-oxomethyl)-1,2,3,4-tetrahydro-2-naphthalenamine monohydrobromide]: 65% and 98%.

As for `c1ccc2c(c1)CC[C@@H](NCCc1c[nH]c3ccccc13)[C@H]2Cc1ccc2ccccc2c1` (relative stereo) [Compound 20, rac-cis-1-(2-Naphthylmethyl)-N-(2-(3-indolyl)ethyl)-1,2,3,4-tetrahydro-2-naphthalenamine hemifumarate methanol], the inhibition at 3 µM under setting [1] was 27%. The inhibition at 30 µM under setting [2] is 99%. The matching figures for `Fc1ccc(CCN[C@@H]2CCc3ccccc3[C@@H]2Cc2ccccc2)cc1` (relative stereo) [Compound 14, monohydrobromide]: 13% and 98%. Regarding `COCCOc1ccc(CCN[C@H]2CCc3cc(OC)ccc3[C@H]2Cc2ccccc2)cc1` (relative stereo) [Compound 37], the inhibition at 3 µM under setting [1] was determined as 84%. On the same count and under the same terms, the same measure for `COc1ccc2c(c1)[C@@H](Cc1ccccc1)[C@@H](NCc1ccccc1OC)CC2` (racemic) [Compound 15, rac-cis-1-(Phenylmethyl)-7-methoxy-N-(2-methoxyphenylmethyl)-1,2,3,4-tetrahydro-2-naphthalenamine monohydrobromide]: 31%. As for `Fc1ccc(C[C@@H]2c3ccccc3CC[C@H]2NCCc2c[nH]c3ccccc23)cc1` (racemic) [Compound 16, rac-trans-1-(4-Fluorophenylmethyl)-N-(2-(3-indolyl)ethyl)-1,2,3,4-tetrahydro-2-naphthalenamine monooxalate], the inhibition at 3 µM is 48% and the inhibition at 30 µM was 101%. With `COc1ccccc1CN[C@H]1CCc2ccccc2[C@H]1Cc1ccc(F)cc1` (racemic) [Compound 12, rac-cis-1-(4-Fluorophenylmethyl)-N-(2-methoxyphenylmethyl)-1,2,3,4-tetrahydro-2-naphthalenamine monohydrobromide], the inhibition at 3 µM under setting [1] was 16%. For the same compound, the inhibition at 30 µM under setting [2] was 98%. The matching figures for `COc1ccc(C[C@H]2c3ccc(OC)cc3CC[C@H]2NCCc2ccc(OC)c(OC)c2)cc1` (relative stereo) [Compound 34]: 89% and 103%. The matching figures for `COc1ccc2c(c1)CC[C@@H](NCCc1ccc(Oc3ccccc3)cc1)[C@H]2Cc1ccccc1` (relative stereo) [Compound 36]: 35% and 87%.

As to `COc1ccc(CCN[C@@H]2CCc3cc(OC)ccc3[C@@H]2Cc2ccccc2)cc1` (relative stereo) [Compound 30], the inhibition at 3 µM under setting [1] amounted to 62%. Also, the inhibition at 30 µM under setting [2] was found to be 99%.

Turning to `COc1ccc2c(c1)CC[C@H](NCCc1ccc(OC)c(OC)c1)[C@@H]2Cc1ccccc1` (racemic) [Compound 6, rac-cis-1-(Phenylmethyl)-6-methoxy-N-(2-(3,4-dimethoxyphenyl)ethyl)-1,2,3,4-tetrahydro-2-naphthalenamine], the inhibition at 3 µM under setting [1] is 86%. For the same compound, the inhibition at 30 µM under setting [2] was determined as 101%. The matching figures for `Fc1ccc(CN[C@H]2CCc3ccccc3[C@H]2Cc2ccccc2)cc1` (racemic) [Compound 9, rac-cis-1-(Phenylmethyl)-N-(4-fluorophenylmethyl)-1,2,3,4-tetrahydro-2-naphthalenamine monohydrobromide]: 20% and 97%. For the compound `c1ccc2c(c1)CC[C@@H](NCCc1c[nH]c3ccccc13)[C@@H]2Cc1ccc2ccccc2c1` (racemic) [Compound 21, rac-trans-1-(2-Naphthylmethyl)-N-(2-(3-indolyl)ethyl)-1,2,3,4-tetrahydro-2-naphthalenamine monooxalate], the inhibition at 3 µM worked out at 33% and the inhibition at 30 µM came to 103%. In the case of `COc1ccc2c(c1)[C@@H](Cc1ccccc1)[C@H](NCCc1c[nH]c3ccccc13)CC2` (racemic) [Compound 19, rac-trans-1-(Phenylmethyl)-7-methoxy-N-(2(3-indolyl)ethyl)-1,2,3,4-tetrahydro-2-naphthalenamine monooxalate], the inhibition at 3 µM is 49%. Turning to `COc1ccc(CCN[C@H]2CCc3ccccc3[C@H]2Cc2cccnc2)cc1OC` (relative stereo) [Compound 28, rac-cis-1-(3-pyridylmethyl)-N-(2-(3,4-dimethoxyphenyl)ethyl-1,2,3,4-tetrahydro-2-naphthalenaminemonohydrobromide], the inhibition at 3 µM under setting [1] was 11%. In addition, under setting [2], the inhibition at 30 µM worked out at 66%. The matching figures for `COc1ccccc1CC(=O)N[C@@H]1CCc2ccccc2[C@@H]1Cc1ccccc1` (relative stereo) [Compound 23]: 12% and 47%. With `COc1ccccc1CN[C@@H]1CCc2ccccc2[C@H]1Cc1ccc(F)cc1` (racemic) [Compound 13, rac-trans-1-(4-Fluorophenylmethyl)-N-(2-methoxyphenylmethyl)-1,2,3,4-tetrahydro-2-naphthalenamine monooxalate], the inhibition at 3 µM amounted to 16% and the inhibition at 30 µM came out at 89%. Regarding `c1ccc(C[C@H]2c3ccccc3CC[C@H]2NCCc2c[nH]c3ccccc23)cc1` (relative stereo) [Compound 8], the inhibition at 3 µM under setting [1] worked out at 73%. Further, under setting [2], the inhibition at 30 µM was 105%.

`COc1ccc2c(c1)CC[C@@H](NCCc1ccc(Cl)c(Cl)c1)[C@H]2Cc1ccccc1` (relative stereo) [Compound 31]: under setting [1], the inhibition at 3 µM amounted to 31%. In addition, the inhibition at 30 µM under setting [2] came to 93%.

In the case of `COc1ccccc1CN[C@H]1CCc2ccccc2[C@H]1Cc1ccccc1` (racemic) [Compound 11, rac-cis-1-(Phenylmethyl)-N-(2-methoxyphenylmethyl)-1,2,3,4-tetrahydro-2-naphthalenamine], the inhibition at 3 µM under setting [1] was 21%. In addition, the inhibition at 30 µM under setting [2] is 96%. The matching figures for `Fc1ccc(C[C@@H]2c3ccccc3CC[C@@H]2NCCCc2ccccc2)cc1` (racemic) [Compound 24, rac-cis-1-(4-Fluorophenylmethyl)-N-(3-phenylpropyl)-1,2,3,4-tetrahydro-2-naphthalenamine monohydrobromide]: 19% and 102%. The matching figures for `COc1cccc(C[C@H]2c3ccc(OC)cc3CC[C@H]2NCCc2ccc(OC)c(OC)c2)c1` (relative stereo) [Compound 32]: 44% and 97%.

As for `COc1ccc2c(c1)CC[C@@H](NCCc1ccc(OC)c(OC)c1)[C@H]2Cc1cccc2ccccc12` (relative stereo) [Compound 33], the inhibition at 3 µM under setting [1] was determined as 16%. Moreover, the inhibition at 30 µM under setting [2] was determined as 73%.
